The text below walks through data of patent publication US8541449B2, “Substituted isoquinolines and isoquinolinones as Rho kinase inhibitors” (Sanofi, priority 2008, dated 2013).

Format in all cases: biochemical
For experiment [1], the target named is T1, human recombinant ROCK II (Homo sapiens, UniProt O75116).
T1 construct: N-terminal His6-tagged recombinant human ROCK-II residues 11-552; His6 (N); purchased Millipore GmbH, Schwalbach, Germany
Description: Determination of Rho kinase inhibition (Caliper peptide phosphorylation assay). As to conditions: 60 min at 32° C., negative decadal logarithm of the IC50. On the procedure:
Determination of Rho Kinase Inhibition
To measure Rho-kinase inhibition, IC50 values were determined according to the following protocol:
Active human recombinant ROCK II (N-terminal His6-tagged recombinant human ROCK-II residues 11-552) was purchased from Millipore GmbH, Schwalbach, Germany. The peptide substrate, Fluorescein-[…]-COOH, was obtained from JPT Peptide Technologies, Berlin, Germany. Adenosine-5′-triphosphate (ATP), bovine serum albumine (BSA), dimethylsulphoxide (DMSO), 4-(2-Hydroxyethyl)piperazine-1-ethanesulfonic acid (Hepes), Brij-35, dithiothreitol (DTT) and Pluronic F-68 were purchased from Sigma-Aldrich, Munich, Germany. Tris(hydroxymethyl)-aminomethane (Tris), magnesium chloride, NaOH, 1M HCl and EDTA were obtained from Merck Biosciences, Darmstadt, Germany. “Complete” protease inhibitor was from Roche Diagnostics, Mannheim, Germany.
(§1) Test compounds were diluted to the appropriate concentrations in buffer 1 (25 mM Tris-HCl, pH 7.4, 5 mM MgCl2, 2 mM DTT, 0.02% (w/v) BSA, 0.01% Pluronic F-68 and 3% DMSO). The ROCK II enzyme was diluted to a concentration of 100 ng/mL in buffer 2 (25 mM Tris-HCl, pH 7.4, 5 mM MgCl2, 2 mM DTT and 0.02% (w/v) BSA). The peptide substrate and ATP were diluted to concentrations of 3 μM and 120 μM, respectively, in the buffer 2. Two μl of the compound solution were mixed with 2 μl of the diluted enzyme in a 384-well small volume microtiter plate (Greiner, Bio-One, Frickenhausen, Germany), and the kinase reaction was initiated by addition of 2 μl of the solution containing peptide substrate and ATP. After 60 min incubation at 32° C., the reaction was stopped by addition of 20 μl of a solution containing 100 mM Hepes-NaOH, pH 7.4, 0.015% (v/v) Brij-35, 45 mM EDTA and 0.227% chip coating reagent 1 (Caliper Lifescience Inc, Hopkinton, Mass.). Phosphorylation of the substrate peptide was then detected on a Caliper 3000 instrument essentially as described by Pommereau et al (J. Biomol. Screening 9(5), 409-416, 2004). Separation conditions were as follows: Pressure −1.3 psi, upstream voltage −1562 V, downstream voltage −500 V, sample sip time 200 ms. Positive controls (buffer 1 instead of compound) and negative controls (buffer 1 instead of compound and buffer 2 instead of ROCK II) were run in parallel on each plate.
The following products/compounds were tested in said assay by using the respective form (salt or free base) obtained as in the examples described above and the following activities were measured

In experiment [2] the target is T2, recombinant human PKA (Homo sapiens, UniProt P17612).
T2 construct: Active recombinant human PKA (residues 1-351, N-terminal His-tag); His-tag (N); purchased Invitrogen, Karlsruhe, Germany
In words: Determination of Protein Kinase A inhibition (Caliper peptide phosphorylation assay). Particulars: recombinant human PKA versus ROCK II. On the procedure:
(§2) Determination of Protein Kinase A and Protein Kinase G Inhibition
(§3) To measure PKA and PKG1-beta inhibition, IC50 values were determined according to the following protocol:
(§4) Active recombinant human PKG1-beta (full-length, with N-terminal His-tag) was purchased from Millipore GmbH, Schwalbach, Germany. Active recombinant human PKA (residues 1-351, N-terminal His-tag) was obtained from Invitrogen, Karlsruhe, Germany. The peptide substrate, Fluorescein-[…]-COOH, was obtained from JPT Peptide Technologies, Berlin, Germany. Adenosine-5′-triphosphate (ATP), bovine serum albumine (BSA), dimethylsulphoxide (DMSO), 4-(2-Hydroxyethyl)piperazine-1-ethanesulfonic acid (Hepes), Brij-35, dithiothreitol (DTT) and Pluronic F-68 were purchased from Sigma-Aldrich, Munich, Germany. Tris(hydroxymethyl)-aminomethane (Tris), magnesium chloride, NaOH, 1M HCl and EDTA were obtained from Merck Biosciences, Darmstadt, Germany. “Complete” protease inhibitor was from Roche Diagnostics, Mannheim, Germany.
as §1, with “PKG1-beta and PKA were” for “The ROCK II enzyme was”, “concentrations” for “a concentration”, “150 ng/ml and 30 ng/ml, respectively,” for “100 ng/mL”, “2.” for “2 (25 mM Tris-HCl, pH 7.4, 5 mM MgCl2, 2 mM DTT and 0.02% (w/v) BSA).”, “kinase solution)” for “ROCK II)”, “plate. The following products/compounds were tested in said assay by using the respective form (salt or free base) obtained as in the examples described above and the following activities were measured.” for “plate.”

Experiment [3] deals with T3, recombinant human PKG1-beta (Homo sapiens, UniProt Q13976).
T3 construct: Active recombinant human PKG1-beta (full-length, with N-terminal His-tag); His-tag (N); purchased Millipore GmbH, Schwalbach, Germany
T3 sequence (Q13976 1-686 isoform Q13976-2): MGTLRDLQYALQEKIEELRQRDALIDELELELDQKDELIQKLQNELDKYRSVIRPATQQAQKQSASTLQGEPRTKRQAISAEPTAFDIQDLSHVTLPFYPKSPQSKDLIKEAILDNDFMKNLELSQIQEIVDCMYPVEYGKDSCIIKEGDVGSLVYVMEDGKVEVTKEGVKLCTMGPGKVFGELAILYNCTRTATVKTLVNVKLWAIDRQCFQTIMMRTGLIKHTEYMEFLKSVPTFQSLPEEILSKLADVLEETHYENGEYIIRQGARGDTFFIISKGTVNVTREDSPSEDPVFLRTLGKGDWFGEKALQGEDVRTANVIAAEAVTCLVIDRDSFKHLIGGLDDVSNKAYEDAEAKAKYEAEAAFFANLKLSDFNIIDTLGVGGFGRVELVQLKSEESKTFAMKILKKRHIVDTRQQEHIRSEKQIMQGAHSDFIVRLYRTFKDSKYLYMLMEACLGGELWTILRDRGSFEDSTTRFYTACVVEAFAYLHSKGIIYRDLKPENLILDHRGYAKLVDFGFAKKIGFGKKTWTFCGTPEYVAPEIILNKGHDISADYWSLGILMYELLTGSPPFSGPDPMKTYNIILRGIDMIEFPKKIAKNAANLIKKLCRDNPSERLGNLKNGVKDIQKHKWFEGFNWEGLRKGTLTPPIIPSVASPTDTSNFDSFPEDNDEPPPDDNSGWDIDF
Description: Determination of Protein Kinase G inhibition (Caliper peptide phosphorylation assay). Particulars: recombinant human PKG1-beta versus ROCK II. On the procedure:
as §2, §3, §4
as §1, with “PKG1-beta and PKA were” for “The ROCK II enzyme was”, “concentrations” for “a concentration”, “150 ng/ml and 30 ng/ml, respectively,” for “100 ng/mL”, “2.” for “2 (25 mM Tris-HCl, pH 7.4, 5 mM MgCl2, 2 mM DTT and 0.02% (w/v) BSA).”, “kinase solution)” for “ROCK II)”, “plate. The following products/compounds were tested in said assay by using the respective form (salt or free base) obtained as in the examples described above and the following activities were measured.” for “plate.”

SMILES strings stand for the structures. Bounds are passed on as bounds.

T1 sequence (O75116 11-552): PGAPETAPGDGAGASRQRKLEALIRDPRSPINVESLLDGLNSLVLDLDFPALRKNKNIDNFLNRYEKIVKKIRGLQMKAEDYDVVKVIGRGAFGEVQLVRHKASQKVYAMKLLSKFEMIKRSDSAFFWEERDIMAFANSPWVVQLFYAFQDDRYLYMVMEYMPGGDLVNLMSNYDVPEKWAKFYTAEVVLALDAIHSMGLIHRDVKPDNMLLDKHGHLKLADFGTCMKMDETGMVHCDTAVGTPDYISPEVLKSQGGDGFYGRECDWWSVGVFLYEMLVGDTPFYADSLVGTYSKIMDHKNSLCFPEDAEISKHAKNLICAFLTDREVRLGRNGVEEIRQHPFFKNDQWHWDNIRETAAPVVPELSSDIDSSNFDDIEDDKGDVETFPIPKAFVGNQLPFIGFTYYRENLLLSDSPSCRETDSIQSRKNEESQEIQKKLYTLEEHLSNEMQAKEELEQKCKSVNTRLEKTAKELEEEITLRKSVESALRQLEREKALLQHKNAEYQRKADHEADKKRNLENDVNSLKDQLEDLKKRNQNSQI

Turning to `CCC(N)[C@]1(c2ccc(F)c(F)c2)CC[C@H](Oc2cc3cc[nH]c(=O)c3cc2C)CC1` (stereo partly drawn) [Example 65, cis-6-[4-(1-Amino-propyl)-4-(3,4-difluoro-phenyl)-cyclohexyloxy]-7-methyl-2H-isoquinolin-1-one], the pIC50 result in experiment [1] is on record as “+++++ (6.0≦pIC50<7.0)”.

Consider `COCCC(N)[C@]1(c2ccc(F)cc2)CC[C@H](Oc2cc3cc[nH]c(=O)c3cc2Cl)CC1` (stereo partly drawn) [Example 115, cis-6-[4-(1-Amino-3-methoxy-propyl)-4-(4-fluoro-phenyl)-cyclohexyloxy]-7-chloro-2H-isoquinolin-1-one], for which, in experiment [1], the pIC50 entry is “+++++ (6.0≦pIC50<7.0)”. Same read-out and setting: with `CCC(N)[C@]1(c2ccccc2)CC[C@H](Oc2cc3ccnc(N)c3cc2Cl)CC1` (stereo partly drawn) [Example 111, cis-6-[4-(1-Amino-propyl)-4-phenyl-cyclohexyloxy]-7-chloro-isoquinolin-1-ylamine] the entry was “++++++ (7.0≦pIC50<8.0)”; with `CCC(N)[C@]1(c2ccccc2)CC[C@H](Oc2c(C)cc3cnccc3c2C)CC1` (stereo partly drawn) [Example 90, cis-1-[4-(5,7-Dimethyl-isoquinolin-6-yloxy)-1-phenyl-cyclohexyl]-propylamine], “+++++ (6.0≦pIC50<7.0)”. The same measure, in the same setting: the result for `CCC(N)[C@]1(c2ccc(F)c(F)c2)CC[C@H](Oc2c(F)cc3c(=O)[nH]ccc3c2C)CC1` (stereo partly drawn) [Example 67, cis-6-[4-(1-Amino-propyl)-4-(3,4-difluoro-phenyl)-cyclohexyloxy]-7-fluoro-5-methyl-2H-isoquinolin-1-one] reads “+++++ (6.0≦pIC50<7.0)”. On to `NC(c1ccccc1)C1CCC(Oc2cc3cc[nH]c(=O)c3cc2Cl)CC1` (single isomer, unassigned) [Example 40, 6-[4-(Amino-phenyl-methyl)-cyclohexyloxy]-7-chloro-2H-isoquinolin-1-one], for which the IC50 in experiment [1] is 100 to 1000 nM. `CC(N)(c1ccccc1)C1CCC(Oc2cc3cc[nH]c(=O)c3cc2Cl)CC1` (centres unmarked) [Example 34, 6-[4-(1-Amino-1-phenyl-ethyl)-cyclohexyloxy]-7-chloro-2H-isoquinolin-1-one]: in experiment [2], the “Selectivity against PKA” value is on record as >300. Further, the “Selectivity against PKG” value in experiment [3] was >10. For `CCCC(C)(N)C1CCC(Oc2cc3cc[nH]c(=O)c3cc2Cl)CC1` (single isomer, unassigned) [Example 124, 6-{4-[1-Amino-1-methyl-n-butyl]-cyclohexyloxy}-7-chloro-2H-isoquinolin-1-one] the same measures were >100 and >10. As for `CCC(N)[C@]1(c2ccccc2)C[C@H]2C[C@@H]1CC2Oc1cc2cc[nH]c(=O)c2cc1Cl` (stereo partly drawn) [Example 101, 6-[(1R,4R,5R)-5-(1-Amino-propyl)-5-phenyl-bicyclo[2.2.1]hept-2-yloxy]-7-chloro-2H-isoquinolin-1-one], the pIC50 result in experiment [1] is “+++++ (6.0≦pIC50<7.0)”. For the compound `CC(N)(C1CCCC1)C1CCC(Oc2cc3cc[nH]c(=O)c3cc2Cl)CC1` (single isomer, unassigned) [Example 118, 6-{4-[1-Amino-1-cyclopentyl-ethyl]-cyclohexyl-oxy}-7-chloro-2H-isoquinolin-1-one], in experiment [1], the IC50 is 100 to 1000 nM. On to `CCC(N)[C@]1(c2ccccc2)CC[C@H](Oc2cc3ccncc3cc2Br)CC1` (stereo partly drawn) [Example 94, cis-1-[4-(7-Bromo-isoquinolin-6-yloxy)-1-phenyl-cyclohexyl]-propylamine], for which, in experiment [1], the pIC50 entry was “+++++ (6.0≦pIC50<7.0)”. Same read-out and setting: the result for `CCC(N)[C@]1(c2ccccc2)CC[C@H](Oc2cc3ccncc3cc2Cl)CC1` (stereo partly drawn) [Example 89, cis-1-[4-(7-Chloro-iso-quinolin-6-yloxy)-1-phenyl-cyclohexyl]-propylamine] reads “+++++ (6.0≦pIC50<7.0)”.

Regarding `NC(C1CCC(Oc2cc3cc[nH]c(=O)c3cc2Cl)CC1)C1CC1` (single isomer, unassigned) [Example 132, 6-[4-(Amino-cyclopropyl-methyl)-cyclohexyloxy]-7-chloro-2H-isoquinolin-1-one], the “Selectivity against PKA” value in experiment [2] is on record as >100. Besides, the “Selectivity against PKG” value in experiment [3] was >10. In the case of `CCC(N)[C@]1(c2ccccc2)CC[C@H](Oc2ccc3cnccc3c2Cl)CC1` (stereo partly drawn) [Example 92, cis-1-[4-(5-Chloro-isoquinolin-6-yloxy)-1-phenyl-cyclohexyl]-propylamine], the pIC50 result in experiment [1] was “+++++ (6.0≦pIC50<7.0)”. For the compound `CCC(N)[C@]1(c2ccc(C)c(OC)c2)CC[C@H](Oc2cc3cc[nH]c(=O)c3cc2Cl)CC1` (stereo partly drawn) [Example 64, cis-6-[4-(1-Amino-propyl)-4-(3-methoxy-4-methyl-phenyl)-cyclohexyloxy]-7-chloro-2H-isoquinolin-1-one], in experiment [2], the “Selectivity against PKA” value is on record as >1000. Moreover, the “Selectivity against PKG” value in experiment [3] was >100. Regarding `CCC(N)(CC)C1CCC(Oc2cc3cc[nH]c(=O)c3cc2Cl)CC1` (single isomer, unassigned) [Example 119, 6-{4-[1-Amino-1-ethyl-propyl]-cyclohexyloxy}-7-chloro-2H-isoquinolin-1-one], in experiment [1], the half-inhibitory concentration (IC50) is 100 to 1000 nM.

The IC50 is the concentration needed to halve the response being measured.
